Assay results taken from PubChem BioAssay (NCI).
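All cell lines were grown in 96-well plates and treated with compound for 48 hours. GI50: concentration for 50% inhibition of growth. TGI marks complete inhibition of growth.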

What was measured:
Assay in all cases: NCI tumour cell line growth inhibition, 48 h
[1] = system: UO-31 renal
[2] = system: IGROV1 ovarian
[3] = system: SK-OV-3 ovarian
[4] = system: OVCAR-5 ovarian
[5] = system: UACC-62 melanoma
[6] = system: SK-MEL-5 melanoma
[7] = system: SF-295 CNS
[8] = system: HCC-2998 colon
[9] = system: DU-145 prostate
[10] = system: SK-MEL-2 melanoma
[11] = system: MDA-MB-231 breast
[12] = system: NCI-H226 lung
[13] = system: T-47D breast
[14] = system: SF-268 CNS
[15] = system: 786-0 renal
[16] = system: BT-549 breast
[17] = system: SN12C renal
[18] = system: RPMI-8226 leukemia
[19] = system: NCI/ADR-RES ovarian
[20] = system: HOP-62 NSCLC
[21] = system: EKVX NSCLC
[22] = system: A498 renal
[23] = system: LOX IMVI melanoma
[24] = system: A549 NSCLC
[25] = system: MALME-3M melanoma
[26] = system: SK-MEL-28 melanoma
[27] = system: RXF 393 renal
[28] = system: SNB-19 CNS
[29] = system: K-562 leukemia
[30] = system: TK-10 renal
[31] = system: HL-60(TB) leukemia
[32] = system: ACHN renal
[33] = system: NCI-H522 lung
[34] = system: SF-539 CNS
[35] = system: MCF7 breast
[36] = system: HCT-15 colon
[37] = system: COLO 205 colon
[38] = system: OVCAR-4 ovarian
[39] = system: MDA-MB-468 breast
[40] = system: CAKI-1 renal
[41] = system: M14 melanoma
[42] = system: NCI-H23 lung
[43] = system: SNB-75 CNS
[44] = system: HCT-116 colon
[45] = system: HOP-92 NSCLC
[46] = system: PC-3 prostate
[47] = system: HS 578T breast
[48] = system: UACC-257 melanoma

Compound: COc1ccc2c(c1)c(-c1cc3nc(-c4cn(C)c5ncc(Br)cc45)cc(N)n3n1)cn2C
- GI50 [1]: 1.78 µM
- TGI [1]: 4.41 µM
- GI50 [2]: 2.04 µM
- TGI [2]: 4.54 µM
- GI50 [3]: 2.41 µM
- TGI [3]: 6.25 µM
- GI50 [4]: 1.63 µM
- TGI [4]: 3.96 µM
- GI50 [5]: 1.56 µM
- TGI [5]: 3.1 µM
- GI50 [6]: 3.27 µM
- TGI [6]: 12.1 µM
- GI50 [7]: 1.77 µM
- TGI [7]: 3.65 µM
- GI50 [8]: 1.66 µM
- TGI [8]: 3.16 µM
- GI50 [9]: 2.79 µM
- TGI [9]: 8.15 µM
- GI50 [10]: 2.07 µM
- TGI [10]: 4.84 µM
- GI50 [11]: 1.62 µM
- TGI [11]: 3.28 µM
- GI50 [12]: 4.19 µM
- TGI [12]: 20.1 µM
- GI50 [13]: 1.66 µM
- TGI [13]: 3.68 µM
- GI50 [14]: 2.3 µM
- TGI [14]: 6.14 µM
- GI50 [15]: 1.73 µM
- TGI [15]: 3.16 µM
- GI50 [16]: 2.12 µM
- TGI [16]: 4.49 µM
- GI50 [17]: 2.11 µM
- TGI [17]: 6.03 µM
- GI50 [18]: 3.32 µM
- TGI [18]: > 100 µM
- GI50 [19]: 2.28 µM
- TGI [19]: 5.62 µM
- GI50 [20]: 2.09 µM
- TGI [20]: 5.98 µM
- GI50 [21]: 1.48 µM
- TGI [21]: 3.39 µM
- GI50 [22]: 2.18 µM
- TGI [22]: 7.22 µM
- GI50 [23]: 1.53 µM
- TGI [23]: 2.89 µM
- GI50 [24]: 2.31 µM
- TGI [24]: 9.05 µM
- GI50 [25]: 1.92 µM
- TGI [25]: 3.47 µM
- GI50 [26]: 1.61 µM
- TGI [26]: 3.02 µM
- GI50 [27]: 1.96 µM
- TGI [27]: 3.57 µM
- GI50 [28]: 2.25 µM
- TGI [28]: 5.58 µM
- GI50 [29]: 3.17 µM
- TGI [29]: > 100 µM
- GI50 [30]: 2.36 µM
- TGI [30]: 6.69 µM
- GI50 [31]: 2.07 µM
- TGI [31]: 5.39 µM
- GI50 [32]: 1.5 µM
- TGI [32]: 3.15 µM
- GI50 [33]: 1.87 µM
- TGI [33]: 3.9 µM
- GI50 [34]: 1.67 µM
- TGI [34]: 3.13 µM
- GI50 [35]: 1.77 µM
- TGI [35]: 3.72 µM
- GI50 [36]: 1.48 µM
- TGI [36]: 3.54 µM
- GI50 [37]: 1.81 µM
- TGI [37]: 3.44 µM
- GI50 [38]: 2.13 µM
- TGI [38]: 5.17 µM
- GI50 [39]: 1.32 µM
- TGI [39]: 2.82 µM
- GI50 [40]: 1.48 µM
- TGI [40]: 3.3 µM
- GI50 [41]: 1.66 µM
- TGI [41]: 3.23 µM
- GI50 [42]: 2.25 µM
- TGI [42]: 6.77 µM
- GI50 [43]: 1.66 µM
- TGI [43]: 4.58 µM
- GI50 [44]: 1.66 µM
- TGI [44]: 3.04 µM
- GI50 [45]: 2.05 µM
- TGI [45]: 4.24 µM
- GI50 [46]: 2.45 µM
- TGI [46]: > 100 µM
- GI50 [47]: 2.29 µM
- TGI [47]: 6.47 µM
- GI50 [48]: 1.79 µM
- TGI [48]: 3.72 µM
